Measurements reported in patent publication US8158632B2, “Pyrazolo[1,5-a]pyrimidines, processes, uses and compositions” (priority 2006, dated 2012).

Tests used:
HeLa cells = assay: Cell toxicity in HeLa cells at 24 h; format: cell-based; details: HeLa at 100 μM
Protocol: (§1) d) In Vitro Determination of Cell Toxicity in HepG2, CHO-K1 and HeLa Cells at 24 h
(§2) Compounds were dissolved in DMSO to achieve an initial concentration of 100 mM. Serial dilutions were made from this stock solution in DMSO to achieve a range of concentrations from 50 to 0.25 mM. The stock solution and serial dilutions were then diluted 1:100 with the respective cell culture medium. In the case of CHO-K1 cells, concentrations at 1000, 500, 250, 100, 50, 25, 10, 5 and 2.5 μM were prepared to assess IC50, whereas in the case of HepG2 cells, final concentrations at 1000, 100, 10 and 1 μM final were assayed in order to calculate the percentage of cell. The final DMSO concentration in all wells was 1% v/v. Cell lines were both incubated with test compounds for 24 hours. Relative cell viability was determined spectro-photometrically at 490 nm following the addition of the MTS dye and further one-hour incubation. Tamoxifen was used as the positive control.
An analogous protocol was used to determine the cell toxicity in HeLa cells at 24 h.

HepG2 cells = assay: Cell toxicity (MTS cell viability) in HepG2 cells at 24 h; format: cell-based, human; details: HepG2 at 100 μM
Protocol: as §1
(§3) HepG2 (human hepatocellular carcinoma cells) and CHO-K1 (Chinese hamster ovary cells) were both obtained from the American Type Culture Collection (ATCC). HepG2 were cultured in Minimum Essential Medium (MEM) containing Earl's salts solution with 1.87 mM Glutamax® and supplemented with 1 mM sodium pyruvate, 0.1 mM non-essential amino acids, 100000 U/L penicillin, 100000 μg/L streptomycin and 10% Foetal Bovine Serum. CHO-K1 were maintained in Ham's F-12 medium containing 1 mM Glutamax® and supplemented with 1 mM L-glutamine, 100000 U/L penicillin, 100000 μg/L streptomycin and 10% Foetal Bovine Serum. Promega CellTiter 96® Aqueous One Solution Cell Viability Assay, contains the tetrazolium salt (MTS) that dehydrogenase enzymes found in metabolically active cells turn into the aqueous soluble formazan product. The quantity of formazan product is proportional to the number of living cells in culture.
as §2

[1] = Cell toxicity (MTS cell viability) in CHO-K1 cells at 24 h; format: cell-based; details: Chinese hamster
Protocol: as §1, §3
Compounds were dissolved in DMSO to achieve an initial concentration of 100 mM. Serial dilutions were made from this stock solution in DMSO to achieve a range of concentrations from 50 to 0.25 mM. […] Relative cell viability was determined spectro-photometrically at 490 nm following the addition of the MTS dye and further one-hour incubation. […]

[2] = tested on: α1 subunit of the GABAA receptor; assay: Ligand-binding assay, competitive with radiolabeled flumazenil, cerebellum membranes; details: 1 nM radiolabeled flumazenil, rat cerebellum membranes; for % inhib 10^−5M: 10^−5M compound; for % inhib 10^−7M: 10^−7M compound
Protocol: (§4) a) Ligand-Binding Assays. Determination of the Affinity of Test Compounds for α1- and α2-GABAA Receptor
(§5) Male Sprague-Dawley rats weighing 200-250 g at the time of experiment were used. After decapitation of the animal, the cerebellum (tissue that mostly contains α1-GABAA receptor) and spinal cord (tissue that mostly contains α2-GABAA receptor) were removed. The membranes were prepared according to the method by J. Lameh et al. (Prog. Neuro-Psychopharmacol. Biol. Psychiatry, 24, 979-991, 2000) and H. Noguchi et al. (Eur. J. Pharm., 434, 21-28, 2002) with slight modifications. Once the tissues weighed, they were suspended in 50 mM Tris.HCl (pH 7.4), 1:40 (v/v), or sucrose 0.32 M in the case of spinal cord, homogenized and then centrifuged at 20000 g for 10 min at 7° C. The resulting pellet was resuspended under the same conditions and centrifuged again. The pellet was finally resuspended on a minimum volume and kept at −80° C. overnight. On the next day, the process was repeated until the final pellet was resuspended at a ratio of 1:10 (v/v) in the case of cerebellum and at a ratio of 1:5 (v/v) in the case of spinal cord.
Affinity was determined by competitive tests using radiolabeled flumazenil as ligand. The tests were performed according to the methods described by S. Arbilla et al. (Eur. J. Pharmacol., 130, 257-263, 1986); and Y. Wu et al. (Eur. J. Pharmacol., 278,125-132, 1995) using 96-well microtiter plates. The membranes containing the study receptors, flumazenil (radiolabeling at a final concentration of 1 nM) and ascending concentrations of test compounds (in a total volume of 230 μL in 50 mM [ph 7.4] Tris.HCl buffer) were incubated. Simultaneously, the membranes were only incubated with the radiolabeled flumazenil (total binding, 100%) and in the presence of an elevated concentration of unradiolabeled flumazenil (non-specific binding, % estimation of radiolabeled ligand). The reactions started on adding the radiolabeled ligand followed by incubation for 60 minutes at 4° C. At the end of the incubation period, 200 μL of reaction were transferred to a multiscreen plate (Millipore) and filtered using a vacuum manifold and then washed three times with cold test buffer. The multiscreen plates were equipped with a GF/B filter that retained the membranes containing the receptors and the radiolabeled ligand which had been bound to the receptors. After washing, the plates were left till dry. Once dried, scintillation liquid was added and left under stirring overnight. The next day the plates were counted using a Perkin-Elmer Microbeta scintillation counter.
(§6) For analysis of the results the percentage of specific binding for every concentration of test compound was calculated as follows: % specific binding=(X−N/T−N)×100 where, • X: amount of bound ligand for every concentration of compound. • T: total binding, maximum amount bound to the radiolabeled ligand. • N: non-specific binding, amount of radiolabeled ligand bound in a non-specific way irrespective of the receptor used.
(§7) Every concentration of compounds was tested in triplicate and their mean values were used to determine the experimental values of % specific binding versus the concentration of compound. Affinity data are expressed as % inhibition at 10^−5M and 10^−7M concentrations for α1 subunit and at 10^-5M for α2 subunit.

[3] = tested on: α2 subunit of the GABAA receptor; assay: Ligand-binding assay, competitive with radiolabeled flumazenil, spinal cord membranes; details: 10^−5M compound; 1 nM radiolabeled flumazenil; rat spinal cord membranes
Protocol: as §4, §5
Affinity was determined by competitive tests using radiolabeled flumazenil as ligand. The tests were performed according to the methods described by S. Arbilla et al. (Eur. J. Pharmacol., 130, 257-263, 1986); and Y. Wu et al. (Eur. J. Pharmacol., 278,125-132, 1995) using 96-well microtiter plates. The membranes containing the study receptors, flumazenil (radiolabeling at a final concentration of 1 nM) and ascending concentrations of test compounds (in a total volume of 230 μL in 50 mM [ph 7.4] Tris.HCl buffer) were incubated. Simultaneously, the membranes were only incubated with the radiolabeled flumazenil (total binding, 100%) and in the presence of an elevated concentration of unradiolabeled flumazenil (non-specific binding, % estimation of radiolabeled ligand). […] The next day the plates were counted using a Perkin-Elmer Microbeta scintillation counter.
as §6, §7

mice = assay: In vivo predictive sedation-hypnosis test (traveled distance); details: male CD1 mice; for % inhib motor activity: 98 μmol/kg ip, traveled distance over 30 min (first 5 min discarded) vs control
Protocol: b) In Vivo Determination of Predictive Sedative-Hypnotic Action
The in vivo effects of these compounds were assessed by a predictive sedation-hypnosis test in mice (D. J. Sanger et al., Eur. J. Pharmacol., 313, 35-42, 1996; and G. Griebel et al., Psychopharmacology, 146, 205-213, 1999).
Groups of 5-8 male CD1 mice, weighing 22-26 g at the time of test, were used. The test compounds were administered in single equimolecular intraperitoneal doses, suspended in 0.25% agar with one drop of Tween 80 in a volume of 10 mL/kg. Two doses were tested in each route. Control animals received the vehicle alone. Using a Smart System (Panlab, S. L., Spain) the traveled distance in cm is recorded for each mouse at 5-min intervals during a period of 30 minutes after intraperitoneal (ip) dosing. The inhibition percentage of traveled distance of treated animals versus control animals (the first 5 min were discarded) and ED50 values were calculated.

[4] = Metabolic stability in human hepatocytes cytosolic fraction; format: in vitro ADME; details: 5 μM compound, 1.0 mg/mL pooled human cytosol, 37° C.
Protocol: c) In Vitro Determination of Metabolic Stability in Human Hepatocytes Cytosolic Fraction
Compounds were dissolved in dimethyl sulfoxide to achieve an initial concentration of 10 mM. This stock solution was then diluted with solvent and buffer to obtain final assay concentration of 5 μM. Compounds were tested at a single concentration of 5 μM in duplicate incubating with 1.0 mg/mL of pooled human cytosol (obtained from Xenotech plc) at 37° C. Metabolism was assessed in the presence or absence of cofactors and measured as loss of parent compound by LC/MS analysis at 0, 60 and 120-minutes time points. Percentages of remaining parent compounds were then calculated.

SMILES	% of cell viability (HeLa cells) [%]	% of cell viability (HepG2 cells) [%]	% of cell viability (HepG2 cells; listed as indiplon) [%]	IC50 at 24 h [1] [µM]	% inhib 10^−5M [2] [%]	% inhib 10^−7M [2] [%]	% inhib 10^−5M [3] [%]	% inhib motor activity (mice) [%]	% of Parent ([4]; 60 min) [%]	% of Parent ([4]; 120 min) [%]	ED50 (mice; Mus musculus, ip, read-out: ED50 in inducing sedation) [µmol/kg]	% of cell viability (HepG2 cells; listed as example 11) [%]
CC(=O)N(C)c1cccc(-c2ccnc3c(C(=O)c4cccs4)cnn23)c1 [Example 1 of US 6399621 (indiplon), N-{3-[3-(thiophene-2-carbonyl)-pyrazolo[1,5-a]pyrimidin-7-yl]-phenyl}-N-methyl-acetamide, reference compound]	67.9	70	70	108								
CN(c1cc(-c2ccnc3c([N+](=O)[O-])cnn23)ccc1F)S(C)(=O)=O [Preparative example 5, N-{2-fluoro-5-[3-nitro-pyrazolo[1,5-a]pyrimidin-7-yl]-phenyl}-N-methyl-methanesulfonamide]					98.2	42.3	94.5	89.0				
CN(c1cc(-c2ccnc3c(C#N)cnn23)ccc1F)S(C)(=O)=O [Preparative example 6, N-{2-fluoro-5-[3-cyano-pyrazolo[1,5-a]pyrimidin-7-yl]-phenyl}-N-methyl-methanesulfonamide]					98.1	36.4	87.5	76.3	86	81		
Cc1nn2c(-c3ccc(F)c(N(C)S(C)(=O)=O)c3)ccnc2c1C#N [Preparative example 11, N-{2-fluoro-5-[3-cyano-2-methyl-pyrazolo[1,5-a]pyrimidin-7-yl]-phenyl}-N-methyl-methanesulfonamide]	83.9	84.5		186	97.7	41.8	95.0	83.8	88	82	16.9	84.5
CC(=O)N(C)c1cc(-c2ccnc3c(C(=O)c4cccs4)cnn23)ccc1C [Preparative example 13, N-{2-methyl-5-[3-(thiophene-2-carbonyl)-pyrazolo[1,5-a]pyrimidin-7-yl]-phenyl}-N-methyl-acetamide]					98.7	39.8		95.6				
COc1ccc(-c2ccnc3c(C(=O)c4cccs4)cnn23)cc1N(C)C(C)=O [Preparative example 14, N-{2-methoxy-5-[3-(thiophene-2-carbonyl)-pyrazolo[1,5-a]pyrimidin-7-yl]-phenyl}-N-methyl-acetamide]					97.3	31.9		89.6				
CCN(C(C)=O)c1cccc(-c2ccnc3c(C#N)cnn23)c1 [Zaleplon, reference compound]							77.4	84.9				
